Patent US20030114512A1, “Compounds with 5-ht2 and 5-ht1a agonist activity for treating glaucoma” (priority 2002, published 2003)
Read-outs that look alike come from different tables or passages of the source.

Columns and labels:
intraocular pressure [1] = settings: rabbits; cited from earlier work
intraocular pressure [2] = settings: monkey; ascribed to α1A receptor activity; cited from earlier work
5-HT2 receptor = biological target: T1, 5-HT2 receptor (Rattus norvegicus, UniProt P14842); assay: 5-HT2 functional assay: phosphoinositide (PI) turnover; assay type: cell-based; settings: for Emax: A7r5 cells, relative to 5-HT set at 100%, read-out: Efficacy (Emax, %) 5-HT2 functional; for EC50: [3H]inositol phosphates, A7r5 rat vascular smooth muscle cells, read-out: EC50, nM (SEM) 5-HT2 functional
T1 construct: A7r5 rat vascular smooth muscle cells; endogenous in cells; host or cells: A7r5 rat vascular smooth muscle cells
T1 sequence (P14842 whole entry): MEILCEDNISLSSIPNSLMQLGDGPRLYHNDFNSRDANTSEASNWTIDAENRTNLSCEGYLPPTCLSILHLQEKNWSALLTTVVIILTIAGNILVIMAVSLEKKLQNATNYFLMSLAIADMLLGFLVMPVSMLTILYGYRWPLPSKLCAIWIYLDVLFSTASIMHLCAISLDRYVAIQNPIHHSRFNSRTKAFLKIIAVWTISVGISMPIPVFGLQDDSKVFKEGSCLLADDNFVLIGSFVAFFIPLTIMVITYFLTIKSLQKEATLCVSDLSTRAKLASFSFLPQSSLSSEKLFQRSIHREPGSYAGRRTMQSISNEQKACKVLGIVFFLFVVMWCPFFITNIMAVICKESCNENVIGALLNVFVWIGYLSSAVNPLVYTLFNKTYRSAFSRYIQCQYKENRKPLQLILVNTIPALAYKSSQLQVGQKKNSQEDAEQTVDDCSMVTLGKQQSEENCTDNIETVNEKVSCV
Procedure: 5-HT2 Functional Assay: Phosphoinositide (PI) Turnover Assay
The relative agonist activity of serotonergic compounds at the 5-HT2 receptor can be determined in vitro using the ability of the compounds to stimulate the production of [^3H]inositol phosphates in [^3H]myo-inositol-labeled A7r5 rat vascular smooth muscle cells by their ability to activate the enzyme phospholipase C. These cells are grown in culture plates, maintained in a humidified atmosphere of 5% CO2 and 95% air and fed semi-weekly with Dulbecco's modified Eagle medium (DMEM) containing 4.5 g/l glucose and supplemented with 2 mM glutamine, 10 μg/ml gentamicin, and 10% fetal bovine serum. For the purpose of conducting the phosphoinositide (PI) turnover experiments, the A7r5 cells are cultured in 24-well plates as previously [J. Pharmacol. Expt. Ther., 286, 411 (1998)]. Confluent cells are exposed for 24-30 hrs to 1.5 μCi [^3H]-myo-inositol (18.3 Ci/mmol) in 0.5 ml of serum-free medium. Cells are then rinsed once with DMEM/F-12 containing 10 mM LiCl prior to incubation with the test agent (or solvent as the control) in 1.0 ml of the same medium for 1 hr at 37° C., after which the medium is aspirated and 1 ml of cold 0.1 M formic acid added to stop the reaction. The chromatographic separation of [^3H]-inositol phosphates ([^3H]-IPs) on an AG-1-X8 column is performed as previously described [J. Pharmacol. Expt. Ther. 286, 411 (1998)] with sequential washes with H2O and 50 mM ammonium formate, followed by elution of the total [^3H]-IPs fraction with 1.2 M ammonium formate containing 0.1 M formic acid. The eluate (4 ml) is collected, mixed with 15 ml scintillation fluid, and the total [^3H]-IPs determined by scintillation counting on a beta counter. Concentration-response data are analyzed by the sigmoidal fit function of the Origin Scientific Graphics software (Microcal Software, Northampton, Mass.) to determine agonist potency (EC50 value) and efficacy (Emax). Serotonin (5-HT) is used as a positive control (standard) agonist compound and the efficacy of test compounds is compared to that of 5-HT (set at 100%). The concentration of the compound needed to stimulate the production of [^3H]-IPs by 50% of the maximum response is termed the EC50 value.

[3] = biological target: T2, human cloned 5-HT1A receptors (Homo sapiens, UniProt P08908); assay: 5-HT1A receptor binding assay ([3H]8-OH-DPAT); settings: [3H]8-OH-DPAT, CHO cell membranes; read-out: IC50, nM (SEM) 5-HT1A receptor binding
T2 construct: purchased NEN (manufactured by Biosignal, Inc., Montreal, Canada); host or cells: CHO cells (membranes)
T2 sequence (P08908 1-422): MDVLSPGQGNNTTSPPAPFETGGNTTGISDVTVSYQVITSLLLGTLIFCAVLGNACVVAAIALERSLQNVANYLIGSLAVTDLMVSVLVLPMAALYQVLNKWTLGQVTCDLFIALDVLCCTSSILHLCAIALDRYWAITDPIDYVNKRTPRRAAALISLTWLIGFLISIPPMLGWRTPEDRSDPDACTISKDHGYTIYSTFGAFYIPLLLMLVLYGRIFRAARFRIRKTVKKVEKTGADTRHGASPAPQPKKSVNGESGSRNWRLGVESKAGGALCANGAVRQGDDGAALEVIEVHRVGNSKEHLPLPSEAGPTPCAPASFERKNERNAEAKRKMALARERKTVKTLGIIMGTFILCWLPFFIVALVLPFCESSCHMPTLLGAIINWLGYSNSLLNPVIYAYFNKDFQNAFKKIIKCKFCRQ
Procedure: 5-HT1A Receptor Binding Assay
5-HT1A binding studies were performed with human cloned receptors expressed in Chinese hamster ovary (CHO) cells using (^3H)8-OH DPAT as the ligand. Membranes from Chinese hamster ovary cells (CHO) expressing cloned 5-HT1A receptors (manufactured for NEN by Biosignal, Inc., Montreal, Canada) were homogenized in approximately 40 volumes of 50 mM Tris pH 7.4 for 5 sec. Drug dilutions were made using a Beckman Biomek 2000 robot (Beckman Instruments, Fullerton, Calif.). Incubations were conducted with membrane prep, test compounds, and 0.25 nM [^3H]8-OH-DPAT (NEN, Boston, Mass.) in the same buffer at 27° C. for 1 h. Assays were terminated by rapid vacuum filtration over Whatman GF/B glass fiber filters pre-soaked in 0.3% polyethyleneimine. Bound radioactivity was measured using liquid scintillation spectrometry. Data were analyzed using non-linear curve fitting programs (Sharif et al., J. Pharmac. Pharmacol. 51: 685-694, 1999).
Ligand binding studies can also be run using membrane preparations from calf and rat brain (local source) and human cortex membranes. Specific brain regions were dissected out, homogenized in 10 volumes of 0.32 M sucrose and centrifuged for 10 min at 700×g. The resulting supernatant was centrifuged at 43,500×g for 10 min and the pellet re-suspended in 50 mM Tris-HCl (pH 7.7, 25° C.) using a 10 sec polytron treatment. Aliquots were stored at −140° C. To remove endogenous serotonin, the preps were incubated at 37° C. for 10 min prior to the experiment. Assay incubations were terminated by rapid filtration over Whatman GF/C filters using a Brandel cell harvester. Ki values were calculated using the Cheng-Prusoff equation (De Vry et al., J. Pharm. Exper. Ther. 284:1082-1094, 1998.)

intraocular pressure [4] = assay: IOP response in lasered (hypertensive) eyes of conscious cynomolgus monkeys; assay type: in vivo, cynomolgus monkey; settings: 300 μg topical ocular
Procedure: IOP Response in Lasered (Hypertensive) Eyes of Conscious Cynomolgus Monkeys
Intraocular pressure (IOP) was determined with an Alcon Pneumatonometer after light corneal anesthesia with 0.1% proparacaine. Eyes were washed with saline after each measurement. After a baseline IOP measurement, test compound was instilled in one 30 μL aliquot to the right eyes only of nine cynomolgus monkeys. Vehicle was instilled in the right eyes of six additional animals. Subsequent IOP measurements were taken at 1, 3, and 6 hours.

SMILES | Effect on IOP (intraocular pressure [1]) | Effect on IOP (intraocular pressure [2]) | Emax (5-HT2 receptor) [%] | EC50 (5-HT2 receptor) [nM] | IC50 [3] [nM] | Percent IOP Reduction (intraocular pressure [4]; 1 hour after dose) [%] | Percent IOP Reduction (intraocular pressure [4]; 3 hours after dose) [%] | Percent IOP Reduction (intraocular pressure [4]; 6 hours after dose) [%]
CCCN(CCC)C1CCc2cccc(O)c2C1 (centres unmarked) [Compound 8-OH-DPAT, 8-hydroxydipropylaminotetralin] | reduces IOP |  |  |  |  |  |  | 
COc1ccccc1N1CCN(CCCNc2c(C)c(=O)n(C)c(=O)n2C)CC1 [5-methylurapidil] |  | lowers IOP |  |  |  |  |  | 
COc1ccc2ccn(CC(C)N)c2c1.O=C(O)/C=C/C(=O)O (centres unmarked) [1-(2-aminopropyl) 6-methoxyindole fumarate] |  |  | 88 | 255 | 225 | 22.5 | 33.1 | 27.5
CC(N)Cn1ccc2cc(Cl)ccc21.O=C(O)/C=C/C(=O)O (centres unmarked) [1-(2-aminopropyl) 5-chloroindole fumarate] |  |  | 104 | 1390 | 417 | 1.2 | 16 | 20.1
